# According to patent publication US20220362262A1, “METHODS AND COMPOSITIONS FOR TISSUE REGENERATION” (Institute of Zoology, Chinese Academy of Sciences, priority 2019, published 2022):
# pEC50: −log10 of the molar value. Entries after “also recorded” stand apart in the source; their conditions may differ. Where two headings read alike, the source gives them in different places.
# Legend:
# [1] = tested on: muscle stem cells and myoblasts in gastrocnemius, quadriceps and TA muscle; assay: Stem cell and myoblast activation in skeletal muscles without injury, immunofluorescence 2 days after single bolus; type: in vivo, mice; settings: gastrocnemius muscle, 2 days after intraperitoneal single bolus, with or without fenofibrate or WY-14643
# Source text: (§1) Some tissues were flash frozen for cryosectioning.
# [2] = tested on: PPARA; settings: agonist of PPARA; cited from earlier work
# [3] = tested on: PPARG; settings: agonist of PPARG; cited from earlier work
# [4] = tested on: GFP+ human myocytes engrafted into cryoinjured TA muscle; settings: myoblasts pre-treated 0-24 h, injected 24 h after cryoinjury
# Source text: as §1
# [5] = tested on: cryoinjured TA muscle; assay: Muscle regeneration after cryoinjury: regenerative index, myogenic proteins, myofiber diameter, grip strength after bolus injection; type: in vivo, mice
# Source text: as §1
# [6] = tested on: pure primary human myoblasts; assay: Pure primary human myoblasts treated with PGI2-related drugs (Western blot, qRT-PCR); type: cell-based; settings: pure primary human myoblasts, relative to DMSO
# [7] = tested on: fibrosis in TA muscle, liver, skin and heart of 2-year old mice; assay: Aging-induced fibrosis and fibrotic precursors in 2-year old mice after daily injection; type: in vivo; settings: for relative changes in the % fibrotic area (Masson trichrome staining) / relative changes in the percentage fraction of fibrotic precursors (PGDFRA-positive and Ki67-positive): 7 days post-injection, 2-year old mice
# Source text: as §1
# [8] = tested on: primary human myoblasts / myocytes
# Procedure: Primary human skeletal muscle (HSKM) progenitors (Gibco) were cultured on gelatin solution (0.1%, Merck-Millipore)-coated plate and incubated in a humidified atmosphere (5% CO2 and 37° C.) with growth medium composed of DMEM/F-12 (Gibco) supplemented with fetal bovine serum (FBS) (20%, GE Healthcare), L-glutamine (1%, Gibco) and penicillin-streptomycin (1%, Gibco). Confluent HSKM progenitors were induced to differentiate by replacing growth media with differentiation medium, comprising of DMEM/F-12, KnockOut Serum Replacement (2%, Gibco), L-glutamine (1%, Gibco) and penicillin-streptomycin (1%, Gibco).
# RNA was extracted using TRIzol (Thermo Fisher) and reverse transcribed to cDNA with Superscript III (Thermo Fisher) according to manufacturer's instructions. The synthesized cDNA was diluted 5× in H2O before performing qPCR with KAPA SYBR FAST (Merck) on ABI Prism 7900HT (Applied Biosystems) real-time PCR system according to manufacturers' instructions.
# Cells were washed with PBS (Thermo Fisher) and fixed with paraformaldehyde (PFA) (4%, Electron Microscopy Sciences) at room temperature for 10 mins. Cells were stained with primary antibody myosin heavy chain eFluor 660 (1:20, 50-6503-82, Thermo Fisher) at 4 C overnight. DAPI (Merck) was used as a nuclear counterstain according to manufacturer's recommendations. Stained cells were imaged with a Zeiss fluorescence microscope.
# [9] = tested on: cryoinjured tibialis anterior (TA) muscle
# Procedure: Eight week old NOD scid gamma (NSG) or C57BL/6 mice were anaesthetized with a mixture of ketamine and xylazine (120 mg/kg and 8 mg/kg respectively) via intraperitoneal injection. After successful anesthetization, the skin over the tibialis anterior (TA) or gastrocnemius or quadriceps muscle was disinfected by wiping with 70% ethanol and a 3 mm incision was made over the TA muscle. A dry-ice-chilled 4-mm metal probe was directly applied onto the exposed skeletal muscle for three cycles of five seconds to induce cryo-injury. Thereafter, the incision was immediately sutured using a surgical suture stapler. Upon recovery under heat lamps for a period of 2 hours, the mice were randomly allocated to each treatment groups. […] Samples were serially sectioned until depleted and haemotoxylin and eosin (H&E) staining was performed on every 12th 5 um-thick tissue section. After microscopy imaging, the area of the cryo-injured myofibers was quantified using ImageJ. For western blot samples, TA muscles were snap-frozen in liquid nitrogen and homogenized in RIPA buffer (Thermo Fisher) supplemented with protease inhibitor cocktails I and II (Merck) and phosphatase inhibitor cocktail set III (Merck) using TissueLyser II (Qiagen).
# [10] = tested on: cryoinjured TA muscle of aged and sarcopenic 2-year-old mice
# Procedure: Liquid chromatography-tandem mass spectrometry (LC-MS/MS) metabolomics and lipidomics analyses were performed according to previously published protocols (Chong et al., 2012).
# Eight week old NOD scid gamma (NSG) or C57BL/6 mice were anaesthetized with a mixture of ketamine and xylazine (120 mg/kg and 8 mg/kg respectively) via intraperitoneal injection. After successful anesthetization, the skin over the tibialis anterior (TA) or gastrocnemius or quadriceps muscle was disinfected by wiping with 70% ethanol and a 3 mm incision was made over the TA muscle. A dry-ice-chilled 4-mm metal probe was directly applied onto the exposed skeletal muscle for three cycles of five seconds to induce cryo-injury. Thereafter, the incision was immediately sutured using a surgical suture stapler. Upon recovery under heat lamps for a period of 2 hours, the mice were randomly allocated to each treatment groups. […] Samples were serially sectioned until depleted and haemotoxylin and eosin (H&E) staining was performed on every 12th 5 um-thick tissue section. After microscopy imaging, the area of the cryo-injured myofibers was quantified using ImageJ.
# Tibialis anterior (TA) tissue samples embedded in paraffin were sectioned using a microtome and transferred onto Leica Microsystems Plus Slides. Some tissues were flash frozen for cryosectioning. Paraffin-embedded sections were deparaffinized in xylene (Merck) for 2 washes (10 mins) and then transferred sequentially into 100% EtOH (Merck), 100% EtOH, 95% EtOH and 70% EtOH (2 mins) at room temperature. The sections were then rehydrated in deionized water (3 mins). Antigen retrieval was carried out using the 2100 Retriever in sodium citrate buffer (Merck, pH 6.2, 30 mins). Slides were then cooled in cold PBS (15 mins) and blocked in blocking buffer at room temperature (30 mins). Primary antibody staining was conducted in blocking buffer at 4° C. overnight with the following antibodies, GFP (1:500, sc-9996, Santa Cruz), Pax7 (5 ug/ml, 042349, DSHB), MyoD (5 ug/ml, sc-377460, Santa Cruz), Ki67 (1:100, 14-5698-82, Thermo Fisher), embryonic MHC (Myh3; 1:100, sc-53091, Santa Cruz), PDGFRa (5 ug/mL, AF1062, R&D), F4/80 (1:100, ab6640, Abcam), PPARG (1:1000, 2443S, CST), and myosin heavy chain eFluor 660 (1:20, 50-6503-82, eBioscience). After the slides were washed thrice in PBS (10 mins) and counterstained with DAPI, secondary antibody staining for GFP was conducted in blocking buffer at room temperature (1 hr) with goat anti-mouse IgG secondary antibody, Alexa Fluor 488 (1:500, A11001, Thermo Fisher).
# [11] = tested on: primary human myoblasts / myocytes; assay: Etomoxir (CPT1 inhibitor) at different time-windows of myoblast differentiation: cell numbers, Western blot; type: cell-based
# [12] = tested on: human myocytes; assay: Seahorse O2 consumption rates in differentiating myocytes; type: cell-based; settings: etomoxir at early 0-12 h and 12-24 h time-windows only
# Procedure: HSKM progenitors were seeded onto Seahorse XF96 Cell Culture Microplate (Agilent), pre-coated with gelatin (0.1%, Merck-Millipore), in growth media at 10,000 cells per well. […] Before performing the Seahorse XF cell Mito Stress Test assay, cell culture media were replaced with assay media (Seahorse XF DMEM Medium, pH 7.4, 2 mM pyruvate, 2 mM glutamine) (Agilent) and incubated in a CO2-free incubator at 37° C. for 1 hour to equilibrate temperature and pH for each well. During the assay, Oligomycin (2 uM, Agilent), FCCP (0.5 uM, Agilent), and a mixture of Antimycin A and Rotenone (0.5 uM, Agilent), were injected sequentially and measurements were taken according to manufacturer's instructions. The data was analyzed using WAVE software.
# [13] = 2-year old mice, injected at 0 h after injury, 27 days post-injury
compound,measurement,setting,value
"Cc1cccc(Nc2cc(Cl)nc(SCC(=O)O)n2)c1C [WY-14643, pirinixic acid]",percentage fraction of myoblasts (MyoD-positive cells),[1],significantly increased
same,percentage fraction of proliferative myoblasts (MyoD-positive Ki67-positive cells),[1],significantly increased
same,pEC50,[2],6.20
same,pEC50,[3],4.49
CN(CCOc1ccc(CC2SC(=O)NC2=O)cc1)c1ccccn1 (centres unmarked) [rosiglitazone],MHC protein expression among the engrafting human myocytes,[4],significantly enhanced
same,grip strength,"[5]; 14 days post-injury, 6-week old mice, prostaglandin at 0 h, rosiglitazone at 24 h post-injury",partially restore grip strength
same,hypertrophic growth (myofiber cross-sectional Feret diameters),"[5]; TA muscle 6.5 days post-injury, prostaglandin at day 0, rosiglitazone at day 1",increase hypertrophic growth
same,regenerative index (fraction of nuclei in embryonic MHC-positive myofibers),"[5]; TA muscle 6.5 days post-injury, single bolus, combinations: prostaglandin at day 0, rosiglitazone at day 1, relative to DMSO vehicle",significantly increase muscle regeneration
same,H3K9ac and MyoD protein (Western blot),[6],followed the same pattern of regulation as PPARG
same,PPARG protein levels (Western blot),[6],stabilize and/or upregulate
same,relative changes in the % fibrotic area (Masson trichrome staining),"[7]; TA muscle, daily injection",partially reverse the aged muscle fibrosis; also recorded: significant reversal of aging-induced fibrosis
same,relative changes in the percentage fraction of fibrotic precursors (PGDFRA-positive and Ki67-positive),"[7]; TA muscle, daily injection",partially suppress the aged muscle fibrotic precursors
same,relative changes in the % fibrotic area (Masson trichrome staining),"[7]; heart tissue, daily injection",partially reverse the aged cardiac fibrosis
same,relative changes in the percentage fraction of fibrotic precursors (PGDFRA-positive and Ki67-positive),"[7]; heart tissue, daily injection",partially suppress the aged cardiac fibrotic precursors
same,relative changes in the % fibrotic area (Masson trichrome staining),"[7]; liver tissue, daily injection",partially reverse the aged liver fibrosis
same,relative changes in the percentage fraction of fibrotic precursors (PGDFRA-positive and Ki67-positive),"[7]; liver tissue, daily injection",partially suppress the aged liver fibrotic precursors
same,PDGFRA+ Ki67+ fibrotic precursor numbers in multiple non-skeletal muscle tissues,"[7]; liver, skin and heart, 2-year-old mice",suppress
same,aging-induced fibrosis (fibrotic area) in multiple non-skeletal muscle tissues,"[7]; liver, skin and heart, daily injection, 2-year-old mice",significant reversal of aging-induced fibrosis
same,relative changes in the % fibrotic area (Masson trichrome staining),"[7]; skin tissue, daily injection",partially reverse the aged skin fibrosis
same,relative changes in the percentage fraction of fibrotic precursors (PGDFRA-positive and Ki67-positive),"[7]; skin tissue, daily injection",partially suppress the aged skin fibrotic precursors
same,myogenesis (MHC protein and α-actinin immunostaining),"[8]; 0-24 h and 24-48 h time-windows, low density",significantly enhanced myogenesis
same,myotube/myofiber maturity and hypertrophy (immunofluorescence),"[8]; 0-24 h time-window, high density",more mature and hypertrophic human myotubes; also recorded: significantly more mature and hypertrophic; also recorded: induces myofibers with wider diameter and higher expression of MHC and α-actinin
same,"mRNA levels of myogenin (MYOG), adult type I myosin heavy chain (MYH7) and perinatal myosin heavy chain (MYH8)","[8]; 0-24 h time-window, low density, at the end of 96 h",uniquely upregulated
same,"myocyte/myotube size and MHC, α-actinin expression (immunofluorescence)","[8]; different time-windows, low density conditions",induces larger myocytes and myotubes with higher expression levels of MHC and α-actinin
same,"mRNA levels of MYOG, MYH7 and MYH8","[8]; other time-windows of treatment, low density, at the end of 96 h",no significant effects
same,myogenesis (MHC protein and α-actinin immunostaining),"[8]; other time-windows, low density",suppressed myogenesis
same,MHC protein isoforms and α-actinin protein levels (Western blot),"[9]; injection at 24 h and 48 h, relative to control and 0 h",stronger expression
same,skeletal muscle regeneration (remaining necrotic area),"[9]; injection at 24 h and 48 h after injury, 4 days post-injury",improved skeletal muscle regeneration
same,MyoD and MyoG protein expression (Western blot),"[9]; intramuscular injection at 24 h post-cryoinjury, TA 4 days post-injury",elicited the strongest expression
same,regenerative index (fraction of nuclei in embryonic MHC-positive myofibers),"[10]; 2-year old mice, injected at 0 h after injury, 6 days post-injury",can restore aged muscle regeneration; also recorded: significantly improved
same,fibrotic area in the TA muscle (Masson trichrome),[10]; [13],can reverse the aged muscle fibrosis; also recorded: significantly reduced fibrosis
same,grip strength,[10]; [13],can partially restore grip strength
same,regenerative index (fraction of nuclei in embryonic MHC-positive myofibers),"[10]; 2-year old mice, injected at 24 h and 48 h time-points",did not show as strong an improvement
same,body weight or aging-induced obesity,"[10]; 2-year-old mice, 27 days after single intramuscular bolus",no significant changes; also recorded: insufficient to affect total body weight and obesity
same,"FAO intermediates (acyl-carnitines) / FAO flux in TA muscle, LC-MS/MS","[10]; 2-year-old mice, bolus at 0 h post-injury, day 6",led to an induction; also recorded: transiently increase FAO flux
CCOC(=O)[C@@]1(CCCCCCOc2ccc(Cl)cc2)CO1 [etomoxir],MHC and MYOG protein phenotype (Western blot),[11]; 0-24 h mitochondrial FAO inhibition,MHC^low; MYOG^low
same,MHC and MYOG protein phenotype (Western blot),[11]; 24 h-48 h mitochondrial FAO inhibition,MHC^low; MYOG^high
same,MHC and MYOG protein phenotype (Western blot),[11]; 48 h-72 h mitochondrial FAO inhibition,MHC^high; MYOG^low
same,MHC and MYOG protein phenotype (Western blot),[11]; 72 h-96 h mitochondrial FAO inhibition,MHC^high; MYOG^high
same,myocyte survival (relative cell numbers),[11]; treatment at 0-24 h and 24-48 h of myoblast differentiation,severely compromised myocyte survival
same,O2 consumption rates,[12],decrease O2 consumption rates
